Patent US11739053B2, “P62-ZZ chemical inhibitor” (ID4PHARMA, LLC, priority 2011, dated 2023)

Key:
MM1.S myeloma cell line = assay: MM1.S myeloma cell proliferation, MTT assay; format: cell-based, human; conditions: 48 h
Experimental: (§1) FIG. 4A-C: 4A. Effect of p62-ZZ inhibitor #3 on myeloma cell growth. MM cell growth was assayed by MTT assay. Data are shown as mean±SD (n=5). FIG. 4B. MTT assay of CD138(+) primary myeloma cells. Data are shown as mean±SD (n=5). FIG. 4C. Effects of p62-ZZ inhibitors on human stromal cell growth. Primary human stromal cells (5×10^3/well) were cultured with 10 μM of p62-ZZ inhibitor (#1-6) containing 10% FCS in IMDM for 48 hours. Stromal cells growth was assayed by MTT assay. Data are shown as the mean±SD (n=5). *P<0.01 compared to vehicle treated culture. MM1.S (3×10^5 cells/well) or CD138 (+) (1×10^5 cells/well) primary myeloma cells were incubated in 96-well plates in the presence of RPMI-1640-10% FCS and various concentrations of p62-ZZ inhibitor #3 at 37° C. 5% CO2 for 48 h to determine the IC50 for inhibiting myeloma cell proliferation.

[1] = tested on: Primary human stromal cells; assay: Stromal cell growth, MTT assay; format: cell-based
Experimental: as §1

OCCNCc1ccc(OCc2ccccc2)c(OCc2ccccc2)c1 [Compound 3, 2-[[3,4-bis(phenylmethoxy)phenyl]methylamino]ethanol]
growth of MM1.S myeloma cell line (result in words) (MM1.S myeloma cell line; FIG. 4A): directly inhibited | IC50 (MM1.S myeloma cell line; Homo sapiens, MM1.S): 6.19 µM | toxicity to regular stromal cells [1]: low toxicity | proliferation of stromal cells by MTT assay ([1]; 10 μM, 48 hours): did not change proliferation
